Experimental findings from patent US20090011442A1, “TB diagnostics based on mycobacterium tuberculosis excretory secretory antigens and their specific immunoglobulins” (priority 2007, published 2009) are described below.

Molecules are shown by their SMILES. Read-outs that look alike come from different tables or passages of the source.

In experiment [1] the test system is M. tb H37Ra bacilli. As to the kind of experiment: microbe, parasite or virus in culture. It is filed as cell-based, Mycobacterium tuberculosis H37Ra.
The subject of experiment [2] is mycobacterial serine protease (Seva TB ES-31). It is filed as biochemical, Mycobacterium tuberculosis H37Ra.
Where [3] appears, read: Mycobacterium tuberculosis, H37RA, read-out: % Inhibition on culture.

The term inhibition denotes the relative decrease from the control value, in per cent.

In the case of `c1cnc2c(c1)ccc1cccnc12` [1,10 Phenanthroline], in experiment [1] (setting [3]), the inhibition at 10 µM was 81%. Moreover, in experiment [2], the “Inhibition (%)” value turned out to be 78%; the “Residual activity (%)” value was 22.4 ± 0.47%; the “serine protease enzyme activity, effect in words” value (from here on “serine protease enzyme activity”) is reported as “inhibited”.

On to `O=c1oc(Cl)c(Cl)c2ccccc12` [3,4-Dichloroisocoumarin], for which the inhibition at 0.2 µM in experiment [1] (setting [3]) was 85%. Further, the “serine protease enzyme activity” value in experiment [2] is “inhibited”. Also, in experiment [2] (10 µM), the “Inhibition (%)” value turned out to be 90% and the “Residual activity (%)” value is on record as 9.84 ± 0.07%.

Take `CC[C@@H](CO)NCCN[C@@H](CC)CO` [EMB, ethambutol]: in experiment [1], the “Effect on H37Ra culture (LJ slant/Sautons' medium)” value (“Effect … (LJ slant/Sautons' medium)” below) is on record as “No Growth”; the “bacillary growth on LJ slant and in Sautons' broth, effect in words” value (“bacillary growth” for short) is “inhibition of bacillary growth”. Besides, in experiment [2], the “% Inhibition of Serine protease” value is given as 70% and the “serine protease enzyme activity” value is recorded as “inhibited”.

For the compound `O=C(O)CN(CCN(CC(=O)O)CC(=O)O)CC(=O)O` [Ethylene diamine tetracetic acid (EDTA), Ethylene diamine tetracetic acid], in experiment [2], the “Inhibition (%)” value came to 65%; the “Residual activity (%)” value is listed as 35.3 ± 0.89%; the “serine protease enzyme activity” value is “inhibited”.

Regarding `NNC(=O)c1ccncc1` [INH, isoniazid], in experiment [1], the “Effect … (LJ slant/Sautons' medium)” value is on record as “No Growth”; the “bacillary growth” value is “inhibition of bacillary growth”. In experiment [2], the “% Inhibition of Serine protease” value was 85%; the “inhibition of serine protease activity” value was determined as 85%; the “serine protease enzyme activity” value is “inhibited”.

Regarding `NC(=O)c1cnccn1` [PZA], the “% Inhibition of Serine protease” value in experiment [2] worked out at 0%.

Turning to `Cl.NCCc1ccc(S(=O)(=O)F)cc1` [Pefabloc], the “% Inhibition on culture” value in experiment [1] (10 µM) came out at 88%. In experiment [2], the “Inhibition (%)” value came out at 92%; the “Residual activity (%)” value is 7.56 ± 0.07%; the “serine protease enzyme activity” value is on record as “inhibited”.

As to `O=S(=O)(F)Cc1ccccc1` [Phenyl methyl sulphonyl fluoride (PMSF), Phenyl methyl sulphonyl fluoride], the “% Inhibition on culture” value in experiment [1] (20 µM) turned out to be 72%. Moreover, in experiment [2], the “Inhibition (%)” value is recorded as 80%; the “Residual activity (%)” value came to 19.6 ± 0.2%; the “serine protease enzyme activity” value was “inhibited”.

Turning to `[H]/N=C(/N)N[C@H]1[C@H](O)[C@@H](O)[C@H](O[C@@H]2O[C@@H](C)[C@](O)(C=O)[C@H]2O[C@@H]2O[C@@H](CO)[C@H](O)[C@@H](O)[C@@H]2NC)[C@@H](N/C(N)=N\[H])[C@@H]1O` [SM, streptomycin], in experiment [1], the “Effect … (LJ slant/Sautons' medium)” value is on record as “No Growth”; the “bacillary growth” value is on record as “inhibition of bacillary growth”. For the same compound, in experiment [2], the “% Inhibition of Serine protease” value worked out at 30% and the “serine protease enzyme activity” value is listed as “inhibited”.
